The data set relates to CCRIS mutagenicity, Ames/micronucleus/aberration tests. Put plainly: CCRIS mutagenicity studies.
Setting [1] is: Test System: AMES SALMONELLA TYPHIMURIUM, Strain/Indicator: TA98, Metabolic Activation: NONE, Method: STANDARD PLATE.
[2] abbreviates: Test System: AMES SALMONELLA TYPHIMURIUM, Strain/Indicator: TA100, Metabolic Activation: NONE, Method: STANDARD PLATE.

In PubChem BioAssay AID1259407 (Chemical Carcinogenesis Research Information System (CCRIS), 2018) one finds mutagenic call data, which are given here for three compounds.

Active and inactive are the calls of the source. The rule behind the calls is not given here.

For the compound `F`, the mutagenic call runs as follows: (End Point: IN VIVO MICRONUCLEUS, Test System: BONE MARROW POLYCHROMATIC ERYTHROCYTES, Species: MOUSE, Strain/Sex: DDY/MALE, Route: IP) “inactive; negative”; (Test System: AMES SALMONELLA TYPHIMURIUM, Strain/Indicator: TA97A, Metabolic Activation: NONE, Method: STANDARD PLATE) “inactive; negative”; (Test System: AMES SALMONELLA TYPHIMURIUM, Strain/Indicator: TA97A, Metabolic Activation: RAT, LIVER, S-9, AROCLOR 1254, Method: STANDARD PLATE) “inactive; negative”; (Test System: AMES SALMONELLA TYPHIMURIUM, Strain/Indicator: TA98, Metabolic Activation: HAMSTER, LIVER, S-9, AROCLOR 1254 (10%), Method: PREINCUBATION) “inactive; negative”; (Test System: AMES SALMONELLA TYPHIMURIUM, Strain/Indicator: TA98, Metabolic Activation: NONE, Method: FLUCTUATION TEST) “inactive; negative”; (Test System: AMES SALMONELLA TYPHIMURIUM, Strain/Indicator: TA98, Metabolic Activation: NONE, Method: PREINCUBATION) “inactive; negative”. The mutagenic call runs as follows: under setting [1], “inactive; negative”; (Test System: AMES SALMONELLA TYPHIMURIUM, Strain/Indicator: TA98, Metabolic Activation: RAT, LIVER, S-9, AROCLOR 1254 (10%), Method: PREINCUBATION) “inactive; negative”; (Test System: AMES SALMONELLA TYPHIMURIUM, Strain/Indicator: TA98, Metabolic Activation: RAT, LIVER, S-9, AROCLOR 1254, Method: STANDARD PLATE) “inactive; negative”; (Test System: AMES SALMONELLA TYPHIMURIUM, Strain/Indicator: TA98, Metabolic Activation: RAT, LIVER, S-9, AROCLOR, Method: PREINCUBATION) “inactive; negative”; (Test System: AMES SALMONELLA TYPHIMURIUM, Strain/Indicator: TA98, Metabolic Activation: RAT, LIVER, S-9, PCB, Method: FLUCTUATION TEST) “inactive; negative”; (Test System: AMES SALMONELLA TYPHIMURIUM, Strain/Indicator: TA98, Metabolic Activation: RAT, LIVER, S-9, PCB, Method: STANDARD PLATE) “inactive; negative”. Besides, the mutagenic call was “inactive; negative” (Test System: AMES SALMONELLA TYPHIMURIUM, Strain/Indicator: TA98, Metabolic Activation: RAT, LIVER, S-9, PHENOBARBITAL, Method: STANDARD PLATE); “inactive; negative” (Test System: AMES SALMONELLA TYPHIMURIUM, Strain/Indicator: TA100, Metabolic Activation: HAMSTER, LIVER, S-9, AROCLOR 1254 (10%), Method: PREINCUBATION); “inactive; negative” (Test System: AMES SALMONELLA TYPHIMURIUM, Strain/Indicator: TA100, Metabolic Activation: NONE, Method: FLUCTUATION TEST); “inactive; negative” (Test System: AMES SALMONELLA TYPHIMURIUM, Strain/Indicator: TA100, Metabolic Activation: NONE, Method: PREINCUBATION); “inactive; negative” under setting [2]; “inactive; negative” (Test System: AMES SALMONELLA TYPHIMURIUM, Strain/Indicator: TA100, Metabolic Activation: RAT, LIVER, S-9, AROCLOR 1254 (10%), Method: PREINCUBATION). Besides, the mutagenic call was “inactive; negative” (Test System: AMES SALMONELLA TYPHIMURIUM, Strain/Indicator: TA100, Metabolic Activation: RAT, LIVER, S-9, AROCLOR 1254, Method: STANDARD PLATE); “inactive; negative” (Test System: AMES SALMONELLA TYPHIMURIUM, Strain/Indicator: TA100, Metabolic Activation: RAT, LIVER, S-9, AROCLOR, Method: PREINCUBATION); “inactive; negative” (Test System: AMES SALMONELLA TYPHIMURIUM, Strain/Indicator: TA100, Metabolic Activation: RAT, LIVER, S-9, PCB, Method: FLUCTUATION TEST); “inactive; negative” (Test System: AMES SALMONELLA TYPHIMURIUM, Strain/Indicator: TA100, Metabolic Activation: RAT, LIVER, S-9, PCB, Method: STANDARD PLATE); “inactive; negative” (Test System: AMES SALMONELLA TYPHIMURIUM, Strain/Indicator: TA100, Metabolic Activation: RAT, LIVER, S-9, PHENOBARBITAL, Method: STANDARD PLATE); “inactive; negative” (Test System: AMES SALMONELLA TYPHIMURIUM, Strain/Indicator: TA102, Metabolic Activation: NONE, Method: STANDARD PLATE). Moreover, the mutagenic call reads like this: (Test System: AMES SALMONELLA TYPHIMURIUM, Strain/Indicator: TA102, Metabolic Activation: RAT, LIVER, S-9, AROCLOR 1254, Method: STANDARD PLATE) “inactive; negative”; (Test System: AMES SALMONELLA TYPHIMURIUM, Strain/Indicator: TA1535, Metabolic Activation: HAMSTER, LIVER, S-9, AROCLOR 1254 (10%), Method: PREINCUBATION) “inactive; negative”; (Test System: AMES SALMONELLA TYPHIMURIUM, Strain/Indicator: TA1535, Metabolic Activation: NONE, Method: PREINCUBATION) “inactive; negative”; (Test System: AMES SALMONELLA TYPHIMURIUM, Strain/Indicator: TA1535, Metabolic Activation: NONE, Method: STANDARD PLATE) “inactive; negative”; (Test System: AMES SALMONELLA TYPHIMURIUM, Strain/Indicator: TA1535, Metabolic Activation: RAT, LIVER, S-9, AROCLOR 1254 (10%), Method: PREINCUBATION) “inactive; negative”; (Test System: AMES SALMONELLA TYPHIMURIUM, Strain/Indicator: TA1535, Metabolic Activation: RAT, LIVER, S-9, AROCLOR 1254, Method: STANDARD PLATE) “inactive; negative”. The mutagenic call is “inactive; negative” (Test System: AMES SALMONELLA TYPHIMURIUM, Strain/Indicator: TA1535, Metabolic Activation: RAT, LIVER, S-9, AROCLOR, Method: PREINCUBATION); “inactive; negative” (Test System: AMES SALMONELLA TYPHIMURIUM, Strain/Indicator: TA1537, Metabolic Activation: HAMSTER, LIVER, S-9, AROCLOR 1254 (10%), Method: PREINCUBATION); “inactive; negative” (Test System: AMES SALMONELLA TYPHIMURIUM, Strain/Indicator: TA1537, Metabolic Activation: NONE, Method: PREINCUBATION); “inactive; negative” (Test System: AMES SALMONELLA TYPHIMURIUM, Strain/Indicator: TA1537, Metabolic Activation: RAT, LIVER, S-9, AROCLOR 1254 (10%), Method: PREINCUBATION); “inactive; negative” (Test System: AMES SALMONELLA TYPHIMURIUM, Strain/Indicator: TA1537, Metabolic Activation: RAT, LIVER, S-9, AROCLOR, Method: PREINCUBATION); “inactive; negative” (Test System: AMES SALMONELLA TYPHIMURIUM, Strain/Indicator: TA1538, Metabolic Activation: NONE, Method: PREINCUBATION). Moreover, the mutagenic call (Test System: AMES SALMONELLA TYPHIMURIUM, Strain/Indicator: TA1538, Metabolic Activation: RAT, LIVER, S-9, AROCLOR, Method: PREINCUBATION) is “inactive; negative”; the mutagenic call (Test System: CHINESE HAMSTER OVARY, Strain/Indicator: CHO-K1-BH4 (HGPRT), Metabolic Activation: NONE, Method: SUSPENSION/PLATE) was “inactive; negative”; the mutagenic call (Test System: CHINESE HAMSTER OVARY, Strain/Indicator: CHO-K1-BH4 (HGPRT), Metabolic Activation: RAT, LIVER, S-9, AROCLOR, Method: SUSPENSION/PLATE) was “inactive; negative”; the mutagenic call (Test System: CHINESE HAMSTER V-79, Strain/Indicator: V-79 (HGPRT)/6-THIOGUANINE, Metabolic Activation: NONE) was “inactive; negative”; the mutagenic call (Test System: CHINESE HAMSTER V-79, Strain/Indicator: V-79/6-THIOGUANINE, Metabolic Activation: NONE) was “inactive; negative”; the mutagenic call (Test System: E.COLI, Strain/Indicator: WP2 UVRA, Metabolic Activation: NONE, Method: FLUCTUATION TEST) was “inactive; negative”. Also, the mutagenic call runs as follows: (Test System: E.COLI, Strain/Indicator: WP2 UVRA, Metabolic Activation: RAT, LIVER, S-9, PCB, Method: FLUCTUATION TEST) “inactive; negative”; (Test System: MOUSE LYMPHOMA, Strain/Indicator: L5178Y (TK+/TK-), Metabolic Activation: NONE, Method: SUSPENSION/PLATE) “active; positive”; (Test System: MOUSE LYMPHOMA, Strain/Indicator: L5178Y (TK+/TK-), Metabolic Activation: RAT, LIVER, S-9, AROCLOR 1254, Method: SUSPENSION/PLATE) “active; positive”.

For the compound `O=[N+]([O-])c1ccc(-c2nc(NCCO)c3ccccc3n2)s1`, the mutagenic call is “active; positive” under setting [1] and “active; positive” under setting [2].

Turning to `CC(C)(C)N.CC(C)(C)N.[Cl][Pt][Cl]`, the mutagenic call is “inactive; negative” (Test System: AMES SALMONELLA TYPHIMURIUM, Strain/Indicator: TA92, Metabolic Activation: NONE, Method: STANDARD PLATE); “active; positive” under setting [1]; “active; positive” under setting [2]; “active; positive” (Test System: AMES SALMONELLA TYPHIMURIUM, Strain/Indicator: TA2410, Metabolic Activation: NONE, Method: STANDARD PLATE).
